Experimental data published in patent publication US20220117958A1, “COMPOSITIONS AND METHODS FOR INHIBITING ACSS2” (THE TRUSTEES OF THE UNIVERSITY OF PENNSYLVANIA, priority 2018, published 2022).

Tested on: Male Sprague-Dawley rat
Assay: Fear conditioning in rats (cued memory test)
Assay type: in vivo
Details: IP, dosed 5 min before and 30 min after acquisition, versus vehicle
Experimental: A. Fear Conditioning in Rats
Species: Rat; Strain: Male Sprague-Dawley (CD-SD strain 001; Charles River Labs); Age or weight: 7 to 9 weeks, approximately 250 grams
Formulation(s): 5% DMSO in 0.5% methylcellulose
Dose Levels: 4 mg/kg total; distributed into 2 injections of 2 mg/kg
Dose Frequency: Twice; once prior to shock cycle and once right after last shock • 1st Injection—5 minutes before being placed into fear conditioning chamber • 2nd Injection—30 minutes after coming out of fear conditioning chamber (alternatively 30 min after last shock) • Study duration: 3 days
Rats are handled for 3 consecutive days for ˜2 minutes each day prior to the experiment. […]
Day 1—Conditioning (Acquisition)—animals are placed in the chambers and presented a training session (Context A). […] Freezing behavior (immobility) is recorded in 10-second intervals during the session. Percent baseline freezing behavior is determined in the 3-minute habituation period. […]
The rats were provided 3 minutes habituation. […] Data is recorded in 10 see epochs. […]
Animals are placed in the chambers with a different (lemon) scent and black Plexiglas floor over the grid floor (Context B). Freezing behavior in response to an altered context is recorded for 2 minutes in 10-second intervals. Then the 80 dB tone is presented for 8 minutes and immobility is recorded in 10-second intervals to measure freezing response to the tone cue.

COCCNC(=O)Nc1ccc2nc(-c3cccs3)c(-c3cccs3)nc2c1 [ADG-205c, 1-(2,3-di(thiophen-2-yl)quinoxalin-6-yl)-3-(2-methoxyethyl)urea]
Freezing during cue presentation (cued memory test) (listed as EPV018): significant reduced freezing
Freezing during cue presentation (cued memory test) (listed as EPV-018): statistically significant reduction
